Source: patent publication US9763925B2, “Antibacterial compounds” (SUMMIT THERAPEUTICS PLC, priority 2008, dated 2017)
Values after ≈ are worked out from the molar mass of the structure shown.

What was measured:
[1] = system: MDR Enterococcus faecium strain (MDR); assay: MIC by broth microdilution against MDR Enterococcus faecium; settings: read-out: MIC (MDR)
[2] = system: Streptococcus pneumoniae ATCC49619; assay: MIC by broth microdilution against Streptococcus pneumoniae ATCC49619; settings: ATCC49619, read-out: MIC (ATCC49619)
[3] = system: Staphylococcus aureus ATCC29213; assay: MIC by broth microdilution against Staphylococcus aureus ATCC29213; settings: ATCC29213, read-out: MIC (ATCC29213)
[4] = system: Clostridium perfringens ATCC13124; assay: microbe, parasite or virus in culture; assay type: cell-based; settings: ATCC13124, read-out: MIC (ATCC13124)
[5] = system: MDR Staphylococcus aureus strain (MDR); assay: MIC by broth microdilution against MDR Staphylococcus aureus; settings: read-out: MIC (MDR)
[6] = system: MDR Streptococcus pneumoniae strain (MDR); assay: MIC by broth microdilution against MDR Streptococcus pneumoniae; settings: read-out: MIC (MDR)
[7] = system: Clostridium perfringens clinical isolate (CI); assay: microbe, parasite or virus in culture; assay type: cell-based; settings: read-out: MIC (CI)
[8] = system: Clostridium difficile ATCC700057; assay: microbe, parasite or virus in culture; assay type: cell-based; settings: for MIC: Clostridioides difficile, ATCC700057, read-out: MIC (ATCC700057)
Enterococcus faecium = assay: MIC by broth microdilution against Enterococcus faecium
Bacillus subtilis = assay type: cell-based

In the case of `Nc1ccc(-c2nc3cc(-c4ccc5nc(-c6ccc(N)cc6)[nH]c5c4)ccc3[nH]2)cc1` [Compound 1, 4,4′-(1H,3′H-5,5′-bibenzo[d]imidazole-2,2′-diyl)dianiline], the MIC [1] is reported as < 1 µg/mL, the MIC [2] is reported as < 1 µg/mL and the MIC [3] is reported as < 1 µg/mL. The MIC [4] was < 1 µg/mL, the MIC [5] was < 1 µg/mL and the MIC [6] was < 1 µg/mL. The MIC [7] was < 1 µg/mL, the MIC [8] was < 1 µg/mL and the MIC (Enterococcus faecium) was < 1 µg/mL.
`Nc1cccc(-c2nc3cc(-c4ccc5[nH]c(-c6cccc(N)c6)nc5c4)ccc3[nH]2)c1` [Compound 2, 3,3′-(1H,1′H-5,5′-bibenzo[d]imidazole-2,2′-diyl)dianiline] was tested, and the MIC [1] was 1 to 16 µg/mL (≈ 2.4 to 38.4 µM), the MIC [2] was 1 to 16 µg/mL (≈ 2.4 to 38.4 µM) and the MIC [3] was 1 to 16 µg/mL (≈ 2.4 to 38.4 µM). The MIC [4] was > 64 µg/mL, the MIC [5] was > 64 µg/mL and the MIC [6] was 1 to 16 µg/mL (≈ 2.4 to 38.4 µM). The MIC [7] was > 64 µg/mL, the MIC [8] was 1 to 16 µg/mL (≈ 2.4 to 38.4 µM) and the MIC (Enterococcus faecium) was 1 to 16 µg/mL (≈ 2.4 to 38.4 µM).
`Oc1ccc(-c2nc3cc(-c4ccc5[nH]c(-c6ccc(O)cc6)nc5c4)ccc3[nH]2)cc1` [Compound 3, 4,4′-(1H,1′H-5,5′-bibenzo[d]imidazole-2,2′-diyl)diphenol] was tested, and the MIC [1] was < 1 µg/mL, the MIC [2] was < 1 µg/mL and the MIC [3] was < 1 µg/mL. The MIC [4] was 1 to 16 µg/mL (≈ 2.39 to 38.2 µM), the MIC [5] was < 1 µg/mL and the MIC [6] was < 1 µg/mL. For the same molecule, the MIC [7] was 1 to 16 µg/mL (≈ 2.39 to 38.2 µM), the MIC [8] was < 1 µg/mL and the MIC (Enterococcus faecium) was < 1 µg/mL.
With `Cn1c(-c2ccc(N)cc2)nc2ccc(-c3ccc4[nH]c(-c5ccc(N)cc5)nc4c3)cc21` [Compound 4, 4,4′-(3′-methyl-1H,3′H-5,5′-bibenzo[d]imidazole-2,2′-diyl)dianiline] the MIC [1] was < 1 µg/mL, the MIC [2] was < 1 µg/mL and the MIC [3] was > 64 µg/mL. The MIC [4] was > 64 µg/mL, the MIC [5] was > 64 µg/mL and the MIC [6] was 1 to 16 µg/mL (≈ 2.32 to 37.2 µM). The MIC [7] was > 64 µg/mL, the MIC [8] was 17 to 64 µg/mL (≈ 39.5 to 149 µM) and the MIC (Enterococcus faecium) was 1 to 16 µg/mL (≈ 2.32 to 37.2 µM).
`Cn1c(-c2ccc(N)cc2)nc2cc(-c3ccc4[nH]c(-c5ccc(N)cc5)nc4c3)ccc21` [Compound 5, 4,4′-(1-methyl-1H,1′H-5,5′-bibenzo[d]imidazole-2,2′-diyl)dianiline] was tested, and the MIC [1] was < 1 µg/mL, the MIC [2] was < 1 µg/mL and the MIC [3] was 1 to 16 µg/mL (≈ 2.32 to 37.2 µM). The MIC [4] was 1 to 16 µg/mL (≈ 2.32 to 37.2 µM), the MIC [5] was 1 to 16 µg/mL (≈ 2.32 to 37.2 µM) and the MIC [6] was < 1 µg/mL. For the same molecule, the MIC [7] was 1 to 16 µg/mL (≈ 2.32 to 37.2 µM), the MIC [8] was 1 to 16 µg/mL (≈ 2.32 to 37.2 µM) and the MIC (Enterococcus faecium) was < 1 µg/mL.
With `CNc1ccc(-c2nc3cc(-c4ccc5[nH]c(-c6ccc(NC)cc6)nc5c4)ccc3[nH]2)cc1` [Compound 6, 4,4′-(1H,1′H-5,5′-bibenzo[d]imidazole-2,2′-diyl)bis(N-methylaniline)] the MIC [1] was < 1 µg/mL, the MIC [2] was < 1 µg/mL and the MIC [3] was < 1 µg/mL. The MIC [4] was 1 to 16 µg/mL (≈ 2.25 to 36 µM), the MIC [5] was < 1 µg/mL and the MIC [6] was < 1 µg/mL. For the same molecule, the MIC [7] was 1 to 16 µg/mL (≈ 2.25 to 36 µM), the MIC [8] was 1 to 16 µg/mL (≈ 2.25 to 36 µM) and the MIC (Enterococcus faecium) was < 1 µg/mL.
In the case of `COc1ccc(-c2nc3cc(-c4ccc5[nH]c(-c6ccc(OC)cc6)nc5c4)ccc3[nH]2)cc1` [Compound 7, 2,2′-bis(4-methoxyphenyl)-1H,1′H-5,5′-bibenzo[d]imidazole], the MIC [1] is reported as < 1 µg/mL, the MIC [2] is reported as < 1 µg/mL and the MIC [3] is reported as < 1 µg/mL. The MIC [4] was < 1 µg/mL, the MIC [5] was < 1 µg/mL and the MIC [6] was < 1 µg/mL. For the same molecule, the MIC [7] was < 1 µg/mL, the MIC [8] was < 1 µg/mL and the MIC (Enterococcus faecium) was < 1 µg/mL.
`Nc1ccc(-c2nc3cc(-c4ccc5[nH]cnc5c4)ccc3[nH]2)cc1` [Compound 8, 4-(1H,1′H-5,5′-bibenzo[d]imidazol-2-yl)aniline] gave an MIC [1] of 1 to 16 µg/mL (≈ 3.07 to 49.2 µM), an MIC [2] of 1 to 16 µg/mL (≈ 3.07 to 49.2 µM) and an MIC [3] of 1 to 16 µg/mL (≈ 3.07 to 49.2 µM). For the same molecule, the MIC [4] was 17 to 64 µg/mL (≈ 52.2 to 197 µM), the MIC [5] was 17 to 64 µg/mL (≈ 52.2 to 197 µM) and the MIC [6] was 1 to 16 µg/mL (≈ 3.07 to 49.2 µM). It also gave an MIC [7] of 1 to 16 µg/mL (≈ 3.07 to 49.2 µM), an MIC [8] of 1 to 16 µg/mL (≈ 3.07 to 49.2 µM) and an MIC (Enterococcus faecium) of 1 to 16 µg/mL (≈ 3.07 to 49.2 µM).
`Nc1ccc(-c2nc3cc(-c4ccc5[nH]c(-c6ccccc6)nc5c4)ccc3[nH]2)cc1` [Compound 9, 4-(2′-phenyl-1H,1′H-5,5′-bibenzo[d]imidazol-2-yl)aniline] was tested, and the MIC [1] was < 1 µg/mL, the MIC [2] was < 1 µg/mL and the MIC [3] was 1 to 16 µg/mL (≈ 2.49 to 39.9 µM). The MIC [4] was 17 to 64 µg/mL (≈ 42.3 to 159 µM), the MIC [5] was 1 to 16 µg/mL (≈ 2.49 to 39.9 µM) and the MIC [6] was < 1 µg/mL. The MIC [7] was 1 to 16 µg/mL (≈ 2.49 to 39.9 µM), the MIC [8] was 1 to 16 µg/mL (≈ 2.49 to 39.9 µM) and the MIC (Enterococcus faecium) was < 1 µg/mL.
In the case of `COc1ccc(-c2nc3ccc(-c4ccc5[nH]c(-c6ccccc6)nc5c4)cc3[nH]2)cc1` [Compound 10, 2′-(4-methoxyphenyl)-2-phenyl-1H,3′H-5,5′-bibenzo[d]imidazole], the MIC [1] is reported as < 1 µg/mL, the MIC [2] is reported as < 1 µg/mL and the MIC [3] is reported as < 1 µg/mL. For the same molecule, the MIC [4] was 1 to 16 µg/mL (≈ 2.4 to 38.4 µM), the MIC [5] was < 1 µg/mL and the MIC [6] was < 1 µg/mL. For the same molecule, the MIC [7] was < 1 µg/mL, the MIC [8] was < 1 µg/mL and the MIC (Enterococcus faecium) was < 1 µg/mL.
In the case of `Nc1ccc(-c2nc3cc(-c4ccc5[nH]c(-c6ccc(N)nc6)nc5c4)ccc3[nH]2)cn1` [Compound 11, 5,5′-(1H,1′H-5,5′-bibenzo[d]imidazole-2,2′-diyl)dipyridin-2-amine], the MIC [1] is reported as 1 to 16 µg/mL (≈ 2.39 to 38.2 µM), the MIC [2] is reported as < 1 µg/mL and the MIC [3] is reported as > 64 µg/mL. For the same molecule, the MIC [4] was 17 to 64 µg/mL (≈ 40.6 to 153 µM), the MIC [5] was > 64 µg/mL and the MIC [6] was < 1 µg/mL. The MIC [7] was > 64 µg/mL, the MIC [8] was < 1 µg/mL and the MIC (Enterococcus faecium) was 1 to 16 µg/mL (≈ 2.39 to 38.2 µM).
`c1cc(-c2nc3cc(-c4ccc5[nH]c(-c6ccncc6)nc5c4)ccc3[nH]2)ccn1` [Compound 12, 2,2′-di(pyridin-4-yl)-1H,1′H-5,5′-bibenzo[d]imidazole] was tested, and the “antibacterial activity against Bacillus subtilis” value (Bacillus subtilis) was “no significant antibacterial activity”, the MIC [1] was > 64 µg/mL and the MIC [2] was < 1 µg/mL. The MIC [3] was > 64 µg/mL, the MIC [4] was > 64 µg/mL and the MIC [5] was > 64 µg/mL. For the same molecule, the MIC [6] was < 1 µg/mL, the MIC [7] was > 64 µg/mL and the “selectivity for Clostridium difficile” value [8] was “highly selective for Clostridium difficile”. For the same molecule, the MIC [8] was < 1 µg/mL and the MIC (Enterococcus faecium) was > 64 µg/mL.
